Data published in patent US8629241B2, “Alpha helical mimics, their uses and methods for their production” (The University of Queensland, priority 2004, dated 2014).
Blank lines part the entries; values can stand above or below the compound they belong to. Where a SMILES comes first, the peptide text is derived from it. Bridges are numbered along the chain shown (N, C = ends). [ ]: non-standard residue; d: D form. hArg = N=C(N)NCCCC[C@H](N)C(=O)O; Flu = fluorescein; βAla = NCCC(=O)O; Mpa = O=C(O)CCS

Experiments:
thrombin = thrombin (Homo sapiens, UniProt P00734); conditions: cited from earlier work
trypsin [1] = conditions: cited from earlier work
trypsin [2] = test: Proteolytic stability of the helix, trypsin digestion (Example 10); type: in vitro ADME; conditions: pH 8.2, room temperature, 1 to 155 minutes
Experimental: A standard solution of Ac—KARAD-NH2 and Ac—(cyclo-1,5)-KARAD-NH2 (1 mg/mL) was prepared in 100 mM ammonium carbonate buffer at pH˜8.2. To 100 μL of each solution was added 1 mg/mL of trypsin (1 μL). The digest was conducted at room temperature with 5 μL aliquots taken at 1, 4, 8, 28, 48, 55, 110, 155 minutes. Aliquots were diluted with 5 μL of 3% TFA to stop the reaction. and analyzed by LC-MS using 2.1×150 mm Phenomenex 300 Å C18 5 μm column, with a 3% per minute linear gradient of 0-60% acetonitrile over 20 minutes. The amount of starting material left in each sample was quantified by determination of total ion counts for the molecular ion.
Compound of SEQ ID NO 8 and its acyclic version SEQ ID NO: 14 were incubated with trypsin (pH 8.2), aliquots removed at intervals between 1 and 155 minutes, and analyzed by LCMS. […] Similarly the cyclic compound 8 was not degraded by human serum (1 h, 37° C.). […] This is consistent with other observations that only an extended or linear peptide conformation is recognized, not only by trypsin, but by all proteolytic enzymes^125 Presumably the cycle is too tightly locked into an alpha helical turn to permit significant unwinding to the extended format needed for recognition by trypsin.

[3] = Stability against denaturants (guanidine.HCl, temperature) followed by CD; type: physicochemical; conditions: 8M guanidinium chloride, 25° C
Experimental: Proteolytic stability of the helix. trypsin digestion
The helical macrocycles were conformationally very stable even under protein-denaturing conditions, as illustrated by the low dependence of their CD spectra on temperature between 5-65° C. (FIG. 9a) and on the concentration of guanidine.HCl (FIG. 9b).
(§1) CD experiments were performed on a Jasco Model J-710 spectropolarimeter which was routinely calibrated with (1S)-(+)-10-camphorsulfonic acid. Temperature control was achieved using a Neslab RTE-111 circulating water bath. Spectra were recorded in a 0.1 cm Jasco cell between 310-185 nm at 50 nm/min with a band width of 1.0 nm, response time of 2 sec, resolution step width of 0.1 nm and sensitivity of 20, 50 or 100 mdeg. Each spectrum represents the average of 5 scans with smoothing to reduce noise. Peptide samples for CD spectroscopy were dissolved in distilled water (˜1 mg/mL). Each stock solution was diluted to a final concentration of 50 μM in 10 mM sodium phosphate buffer (pH7.4), with or without additives (2,2,2-trifluoroethanol (TFE) or guanidine.HCl). Guanidine.HCl denaturation experiments were performed according to Creighton^105.

Serum stability = type: in vitro ADME; conditions: 1 h, 37° C
Experimental: Standard solutions of Ac—KARAD-NH2 and Ac—(cyclo-1,5)-KARAD-NH2 (1 mg/mL) were prepared in water. 200 μL of each peptide was added to human serum 800 μL and incubated at 37° C. Acetonitrile/water 3:1 (300 μL) was added to aliquots (100 μL) of serum at 5, 15, 30, 45 and 60 minutes to precipitate serum proteins, which were removed by centrifugation. The decanted supernatant was analyzed by LC-MS MS with a 2.1×150 mm Phenomenex 300 Å C18 5 um column, using a 3% per minute linear gradient from 0%-60% acetonitrile over 20 minutes. The amount of starting material left in each sample was quantified by determination of total ion counts for the molecular ion.

[4] = type: physicochemical; conditions: for θ222/θ208 / [θ]192 / [θ]208 / [θ]222: Table 8; for [θ]192 / [θ]208 / [θ]222: one or more cyclic pentapeptide modules versus linear peptides; for % helicity: fH × 100, [θ∞H]222 = −44000, k = 2.6
Experimental: Circular Dichroism (CD) was performed on peptides having SEQ ID NOs: 8 to 14 and 18 to 31, using methods described above. The molar elipticities at 222 nm, 208 nm and 190 nm, ratios of elipticities at 222 nm/208 nm and relative helicity are shown in Tables 6 and 7.
Assuming that mean alpha helix content (fH) is linearly related to elipticity at 222 nm, or in our case 215 nm ([θ]obs215), then the equation for calculating helix content is: fH=([θ]obs215−[θ]C)/([θ]∞215−[θ]C) (1) Luo and Baldwin^22 determined that the random coil ([θ]C) and infinite alpha helix ([θ]∞222) molar elipticities are temperature dependent based on the equations: [θ]C=2220−53T (2a) [θ]∞215=(−44000+250T)(1−k/Np) (2b) where T is temperature in degrees Celsius, Np is the number of peptide units, and k is a finite length correction.
CD was performed on peptides having one [SEQ ID NO: 8] or more than one modular macrocycle [SEQ ID NOs: 46 and 47], as compared with corresponding linear peptides, Ac[KARAD]n—NH2 where n=1 [SEQ ID NO: 14], n=2 [SEQ ID NO: 54] and n=3 [SEQ ID NO: 55]. The molar elipticities at 222 nm, 208 nm and 190 nm, ratios of elipticities at 222 nm/208 nm and percentage helicity are shown in Table 8.
as §1
1D ^1H NMR spectra were then recorded with presaturation and a relaxation delay (d1) of 30 seconds to allow for full relaxation of peptide and DSS^1H signals to facilitate accurate integration of proton signals with S/N>250:1. This method provides reproducible concentrations within ±2%.
CD data in ellipticity was converted to mean peptide ellipticity using the equation: [θ]=θ/(10×C×Np×1) where θ is the ellipticity in millidegrees, C is the peptide molar concentration (M), 1 is the cell path length (cm), and Np is the number of peptide units (ie. pentapeptides […], 10 & 11 Np=5, 12 Np=4.)
Relative helicities were employed to allow scaling of compounds by dividing the [θ]obs215(8)/[θ]obs215(x) for pentapeptides, and [θ]obs215(24)/[θ]obs215(x) for hexapeptides.

trypsin [5] = test: in vitro; type: in vitro ADME; conditions: isolated enzyme trypsin, pH 8
Experimental: Solutions of SEQ ID NO: 46 (25 μM) and linear peptide SEQ ID NO: 54 (26 μM) were incubated with trypsin (1 μg/mL) in 25 mM ammonium carbonate buffer (pH=8) at room temperature. Aliquots were taken at 30 seconds, 1 minute, 5 minutes, 15 minutes, 30 minutes, 1 hour and 2 hours, and diluted with an equivalent volume of 3% trifluoroacetic acid. The resultant solutions were analyzed using a 2×75 mm, 3 μm, Aqua C-18 column (Phenomenex) equilibrated in aqueous formic acid (0.1%). Peptide cleavage products were eluted using a linear gradient of acetonitrile from 0 to 80% in aqueous 0.01% formic acid over 20 minutes at a rate of 300 μL/min. Rate of degradation of either SEQ ID NO: 32 or SEQ ID NO: 43 was quantified by determining extracted ion counts of chromatograms relative to control solutions (containing no enzyme) using a QSTAR PULSAR Electrospray QqTOF Mass Spectrometer and analyzed using BioMultiview (SCIEX Software). Retention time of SEQ ID NO: 46=11.64 minutes. Retention time of linear peptide SEQ ID NO: 54=7.43 minutes. SEQ ID NO: 46 was also found to be highly resistant to proteolytic cleavage by trypsin (97% recovered intact after 2 h), whereas the linear peptide […] (SEQ ID NO: 54) was completely degraded within 30 seconds.

[6] = phase III; patients at risk of abrupt vessel closure after coronary angioplasty; cited from earlier work
MDM2 [7] = target: T1, MDM2 (Homo sapiens, UniProt Q00987); conditions: cited from earlier work
MDM2 [8] = target: T1, MDM2; conditions: read-out: dissociation constant; cited from earlier work
Bcl-2 = Bcl-2 (Homo sapiens, UniProt P10415); conditions: read-out: dissociation constant; cited from earlier work
Bcl-xL = Bcl-xL (Homo sapiens, UniProt Q07817); conditions: read-out: dissociation constant; cited from earlier work
Chain of Bcl-xL (Q07817 whole entry, species assumed): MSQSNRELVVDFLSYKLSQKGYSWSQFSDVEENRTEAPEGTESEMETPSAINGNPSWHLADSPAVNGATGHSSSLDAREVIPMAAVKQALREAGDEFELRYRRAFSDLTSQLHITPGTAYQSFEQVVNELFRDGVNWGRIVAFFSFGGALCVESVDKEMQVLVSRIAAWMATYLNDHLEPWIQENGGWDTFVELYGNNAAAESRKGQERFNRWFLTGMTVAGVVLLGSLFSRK

T1 sequence (Q00987 whole entry): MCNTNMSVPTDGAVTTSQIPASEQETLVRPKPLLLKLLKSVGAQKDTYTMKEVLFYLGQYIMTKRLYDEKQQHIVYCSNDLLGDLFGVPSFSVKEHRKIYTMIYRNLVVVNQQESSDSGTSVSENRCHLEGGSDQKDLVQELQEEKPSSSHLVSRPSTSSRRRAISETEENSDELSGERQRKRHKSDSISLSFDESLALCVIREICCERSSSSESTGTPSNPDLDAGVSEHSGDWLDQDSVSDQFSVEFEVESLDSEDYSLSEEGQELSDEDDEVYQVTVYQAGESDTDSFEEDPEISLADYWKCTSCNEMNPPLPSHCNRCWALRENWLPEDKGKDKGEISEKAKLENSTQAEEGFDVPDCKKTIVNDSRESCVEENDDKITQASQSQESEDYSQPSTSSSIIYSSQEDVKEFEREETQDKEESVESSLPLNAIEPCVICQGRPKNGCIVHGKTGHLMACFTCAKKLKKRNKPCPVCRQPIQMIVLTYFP
Chain of Bcl-2 (P10415 whole entry, species assumed): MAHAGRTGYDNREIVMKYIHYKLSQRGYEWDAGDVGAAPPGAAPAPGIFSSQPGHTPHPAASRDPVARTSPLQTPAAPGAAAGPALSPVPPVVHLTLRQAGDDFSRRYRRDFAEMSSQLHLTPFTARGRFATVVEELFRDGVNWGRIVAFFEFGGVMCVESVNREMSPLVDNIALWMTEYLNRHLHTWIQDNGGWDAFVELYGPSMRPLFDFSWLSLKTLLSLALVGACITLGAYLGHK

Compound: N=C(N)NCCC[C@@H]1NC(=O)[C@@H]2CCCN2C(=O)[C@@H](NC=O)CNC(=O)/C=C/C(Cc2ccc(O)cc2)NC(=O)[C@@H](Cc2ccccc2)NC(=O)C1=O (some centres unmarked) [Cyclotheonamide A]
Ki (thrombin): 180 nM | Ki (trypsin [1]): 23 nM

stability to trypsin (starting material left, LCMS) (trypsin [2]): remained intact | alpha helicity (molar elipticity at 215 nm) in denaturant [3]: maintains full alpha helicity | degradation by human serum (Serum stability): not degraded | molar elipticity at 215 nm in helix stabilizing solvent [4]: does not increase | θ222/θ208 [4]: 0.98 | [θ]192 [4]: 52191 degcm^2dmol^−1residue^−1 | [θ]208 [4]: −17039 degcm^2dmol^−1residue^−1 | [θ]222 [4]: −15464 degcm^2dmol^−1residue^−1 | Relative helicity ([4]; [θ]215 relative to SEQ ID NO: 8, 10 mM phosphate buffer, pH 7.4, 25° C): 1.00 | percentage helicities ([4]; equation 2b with k˜4, assuming 8 has 100% helicity): 100% | % helicity [4]: 79% | helicity on variation of the k factor ([4]; k factor from 2.4 to 4.5): 56-135% | [θ]190 ([4]; molar elipticity at 190 nm, 10 mM phosphate buffer, pH 7.4, 25° C): 38300 deg.cm^2.dmol^−1.residue^−1 | [θ]207 ([4]; molar elipticity at 207 nm, 10 mM phosphate buffer, pH 7.4, 25° C): −12211 deg.cm^2.dmol^−1.residue^−1 | [θ]215 ([4]; molar elipticity at 215 nm, 10 mM phosphate buffer, pH 7.4, 25° C): −12757 deg.cm^2.dmol^−1.residue^−1 | θ215/θ207 ([4]; ratio of elipticities, 10 mM phosphate buffer, pH 7.4, 25° C): 1.04
Compound: CC(=O)N[C@H]1CCCCNC(=O)C[C@@H](C(N)=O)NC(=O)[C@H](C)NC(=O)[C@H](CCCNC(=N)N)NC(=O)[C@H](C)NC1=O [SEQ ID NO: 8, Ac-(cyclo-1,5)-[KARAD]-NH2] (Ac-KARAD-NH2; lactam 1-5)

remaining at 2 h, 25 μM (trypsin [5]): 97% | θ222/θ208 [4]: 1.29 | [θ]192 [4]: 104187 degcm^2dmol^−1residue^−1 | [θ]208 [4]: −24957 degcm^2dmol^−1residue^−1 | [θ]222 [4]: −32340 degcm^2dmol^−1residue^−1 | % helicity [4]: 99%
Compound: CC(=O)N[C@H]1CCCCNC(=O)C[C@@H](C(=O)N[C@H]2CCCCNC(=O)C[C@@H](C(N)=O)NC(=O)[C@H](C)NC(=O)[C@H](CCCNC(=N)N)NC(=O)[C@H](C)NC2=O)NC(=O)[C@H](C)NC(=O)[C@H](CCCNC(=N)N)NC(=O)[C@H](C)NC1=O [SEQ ID NO: 46] (Ac-KARADKARAD-NH2; lactam 1-5, 6-10)

Compound: N=C(N)NCCCC[C@@H]1NC(=O)CCSSC[C@@H](C(N)=O)NC(=O)[C@@H]2CCCN2C(=O)[C@H](Cc2c[nH]c3ccccc23)NC(=O)[C@H](CC(=O)O)NC(=O)CNC1=O [eptifibatide] ([Mpa][hArg]GDWPC-NH2; disulfide 1-7)
incidence of cardiac events [6]: reduce the incidence of cardiac events

Compound: Acetyl-Phe-Met-Aib-Pmp-6C1W-Glu-Ac3c-Leu-NH2
IC50 (MDM2 [7]): 5 nM

Compound: Ac—FR(Dpr-Flu)(Ac6c)(6-Br—W)EEL-NH2
Kd (MDM2 [8]): 2 nM

Compound: Flu-βANLWAAQRYGRELRRMSDKKFVDSFKK-NH2 ({Flu-βAla}-ANLWAAQRYGRELRRMSDKKFVDSFKK-NH2)
Kd (Bcl-2): 3 nM | Kd (Bcl-xL): 0.6 nM
